# Assays:
# [1] = tested on: hematological malignancies and solid tumors; conditions: Chao M P et al., 2016; cited from earlier work
# [2] = tested on: acute myelocytic leukemia (AML) HL-60 cells; assay: ADCP: phagocytosis of HL-60 cells by HPMMs, combination with azacitidine; assay type: cell-based, human; conditions: HPMMs effector, HL-60 target cells treated with azacitidine 3 μM or 1 μM for 24 h; antibodies 10 μg/mL and 1 μg/mL; FIG. 2
# Description: Materials: Azacitidine (purchased from Baxter Oncology GmbH); Hu5F9-G4 (supplied by Akeso Biopharma, Inc.); Raji cells (Chinese Academy of Sciences Shanghai Branch); HL-60 cells (ATCC); RPMI 1640 (Gibco, Cat. No: 22400-105); pancreatin (0.25% Typsin-EDTA (1×)) (Gibco, Cat. No: 25200072); fetal bovine serum (FBS; Excell bio, Cat. No: FSP500); fluorescent dye […] diacetatesuccinimidyl ester (CFSE; Biolegend, Cat. No: 423801); recombinant human macrophage colony-stimulating factor (human M-CSF; PeproTech, Cat. No: 300-25); APC anti-human CD11c antibody (Biolegend, Cat. No: 301614); isotype control (human IgG4; supplied by Akeso Biopharma, Inc.); rituximab (Roche); BSA (Sigma, Cat. No: V900933-1KG); Ficoll paque plus (GE, Cat. No: 17-1440-02). Human peripheral monocyte-derived macrophages (HPMMs) were prepared by inducing PBMCs. Frozen PBMCs were conventionally thawed and incubated in an incubator overnight. […]
# Procedures: HL-60 cells were conventionally collected and plated in a 6-well plate at 4×10^5 cells/2 mL of 1640 complete medium per well. […] The next day, the treated and blank HL-60 cells were collected, centrifuged at 170×g for 5 min, resuspended and counted. Then the cells were analyzed for viability and washed once with PBS. […]
# [3] = tested on: CT26-hCD47 cells (mouse colon cancer cells); assay: CT26-hCD47 tumor model in BALB/c-hPD1/hSIRPα mice, tumor volume; assay type: in vivo; conditions: 6F7H1L1(hG4) 5 mg/kg, cadonilimab 0.5 mg/kg, intraperitoneally twice per week for 4 weeks, 7 doses; vs isotype control hIgG4; FIG. 9
# Description: (§1) In order to determine the tumor inhibitory activity in vivo of 6F7H1L1(hG4) antibody in combination with anti-PD-1/anti-CTLA-4 bispecific antibody cadonilimab, female BALB/c-hPD1I/hSIRPα mice aged 6.43-8.43 weeks (purchased from GemPharmatech Co., Ltd.) were grafted subcutaneously with CT26-hCD47 cells (mouse colon cancer cells, purchased from GemPharmatech Co., Ltd.). When the mean tumor volume reached 80-120 mm^3, the mice were randomized into 4 groups of 6 by tumor volume. The day of grouping was defined as D0, and dosing was started on the day of grouping D0. The regimen of the combination therapy group is as follows: the drugs were formulated separately and administered sequentially (no certain order or time interval was required, and one treatment should be given after the completed administration of the other). After the administration, the length and width of tumors in each group were measured, and the tumor volume was calculated. The data were subjected to an independent sample T-test, SPSS 17.0 *P<0.05, **P<0.01.
# [4] = tested on: human Burkitt's lymphoma Raji-PDL1 cells; assay: Immune cell activation: PBMCs co-cultured with Raji-PDL1 cells, cytokine ELISA; assay type: cell-based; conditions: SEB-activated PBMCs + MMC-treated Raji-PDL1 cells, 3 days; FIG. 3
# [5] = CT26-hCD47 tumor model, tolerability and body weight; assay type: in vivo; conditions: 6F7H1L1(hG4) 5 mg/kg, cadonilimab 0.5 mg/kg, i.p.; FIG. 10
# Description: as §1
# Raji cells = assay: ADCP: phagocytosis of Raji cells by HPMMs, combination with obinutuzumab; assay type: cell-based, human; conditions: HPMMs effector, Raji target cells, 37° C. 2 h; FIG. 8
# Experimental: PBMCs (prepared by Akeso Biopharma, Inc., Lot No: 20201126-G) were thawed and incubated with 1640 complete medium+10% FBS (Excell bio, Cat. No: FSP500, Lot No: 11I025) overnight. The next day, the medium was changed to 1640 complete medium+2% FBS, and the cells were incubated with the medium for 2 h. The supernatant was removed, and the cells were washed twice with PBS and incubated in an incubator (90% 1640+10% FBS+M-CSF-100 ng/mL) to induce […] (HPMMs). The medium was exchanged and the treatment was given on days 3 and 5. The experiment was performed on day 7 of induction.
# Raji cells (purchased from ATCC) were conventionally collected and washed once with PBS. CFSE was diluted to 2.5 μM with PBS. The cells were resuspended in a proper amount of the diluted CFSE to a staining density of 1×10^7 cells/mL and incubated in an incubator for 20 min. 6 mL of 1640 complete medium (containing 10% FBS) was added to stop staining. The cells were centrifuged at 170×g for 5 min, and the supernatant was discarded. 1 mL of 1640 complete medium was added, and the cells were incubated in an incubator for 10 min with the cell density adjusted to 3×10^6 cells/mL. […] 200 μL of 1% PBSA was added to each tube for resuspension, and the cells were transferred to a flow cytometry tube and detected.
substance,measurement,setting,value
"Hu5F9-G4: anti-CD47 monoclonal antibody drug, positive control; heavy chain SEQ ID NO: 85, light chain SEQ ID NO: 86",inhibition of growth and metastasis of tumors in preclinical studies,[1],effectively inhibits the growth and metastasis of hematological malignancies and solid tumors
same,phagocytic index (ADCP),[2],significantly higher than those of the blank control and the isotype control (human IgG4)
"cadonilimab: anti-PD-1/CTLA-4 bispecific antibody; heavy chain SEQ ID NO: 78, light chain SEQ ID NO: 80 [reference compound]",inhibition of tumor growth (tumor volume),[3],can effectively inhibit the growth of tumors in mice
same,secretion of IFN-γ in PBMCs,[4],can significantly stimulate the secretion of IFN-γ
same,tolerability in tumor-bearing mice,[5],well tolerated
obinutuzumab: anti-human CD20 antibody [reference compound],phagocytic index (ADCP),Raji cells,significantly higher than those of the blank control and the isotype controls (human IgG4 and human IgG1)
